Test results published in PubChem BioAssay (NCI).
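Grown in 96-well plates, cells were treated for 48 hours with each compound at five concentrations. Insufficient inhibition: endpoint recorded as highest concentration tested. GI50 is the concentration that inhibits growth by half. TGI: concentration producing complete growth inhibition.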

Columns and labels:
Test in all cases: NCI anticancer screen, dose series, 48 h
HOP-92 NSCLC = tested on: HOP-92 NSCLC
SNB-75 CNS = tested on: SNB-75 CNS
MDA-MB-231 breast = tested on: MDA-MB-231 breast
LOX IMVI melanoma = tested on: LOX IMVI melanoma
HCT-116 colon = tested on: HCT-116 colon
NCI/ADR-RES ovarian = tested on: NCI/ADR-RES ovarian
MDA-MB-435 = tested on: MDA-MB-435
OVCAR-8 ovarian = tested on: OVCAR-8 ovarian
T-47D breast = tested on: T-47D breast
HL-60(TB) leukemia = tested on: HL-60(TB) leukemia
CAKI-1 renal = tested on: CAKI-1 renal
A549 NSCLC = tested on: A549 NSCLC
MCF7 breast = tested on: MCF7 breast
TK-10 renal = tested on: TK-10 renal
MALME-3M melanoma = tested on: MALME-3M melanoma
DU-145 prostate = tested on: DU-145 prostate
BT-549 breast = tested on: BT-549 breast
NCI-H460 lung = tested on: NCI-H460 lung
PC-3 prostate = tested on: PC-3 prostate
M14 melanoma = tested on: M14 melanoma
ACHN renal = tested on: ACHN renal
RXF 393 renal = tested on: RXF 393 renal
K-562 leukemia = tested on: K-562 leukemia
HOP-62 NSCLC = tested on: HOP-62 NSCLC
NCI-H522 lung = tested on: NCI-H522 lung
OVCAR-5 ovarian = tested on: OVCAR-5 ovarian
UACC-257 melanoma = tested on: UACC-257 melanoma
SR leukemia = tested on: SR leukemia
SN12C renal = tested on: SN12C renal
OVCAR-4 ovarian = tested on: OVCAR-4 ovarian
IGROV1 ovarian = tested on: IGROV1 ovarian
SNB-19 CNS = tested on: SNB-19 CNS
SK-OV-3 ovarian = tested on: SK-OV-3 ovarian
SW-620 colon = tested on: SW-620 colon
HCT-15 colon = tested on: HCT-15 colon
NCI-H23 lung = tested on: NCI-H23 lung
HT29 colon = tested on: HT29 colon
KM12 colon = tested on: KM12 colon
NCI-H226 lung = tested on: NCI-H226 lung
A498 renal = tested on: A498 renal
SF-268 CNS = tested on: SF-268 CNS
SK-MEL-28 melanoma = tested on: SK-MEL-28 melanoma
OVCAR-3 ovarian = tested on: OVCAR-3 ovarian
U251 CNS = tested on: U251 CNS
SK-MEL-2 melanoma = tested on: SK-MEL-2 melanoma
MOLT-4 leukemia = tested on: MOLT-4 leukemia
EKVX NSCLC = tested on: EKVX NSCLC
UO-31 renal = tested on: UO-31 renal
SF-295 CNS = tested on: SF-295 CNS
HCC-2998 colon = tested on: HCC-2998 colon
SK-MEL-5 melanoma = tested on: SK-MEL-5 melanoma
SF-539 CNS = tested on: SF-539 CNS
HS 578T breast = tested on: HS 578T breast
RPMI-8226 leukemia = tested on: RPMI-8226 leukemia
UACC-62 melanoma = tested on: UACC-62 melanoma
786-0 renal = tested on: 786-0 renal
COLO 205 colon = tested on: COLO 205 colon
CCRF-CEM leukemia = tested on: CCRF-CEM leukemia

## COc1ccc2[nH]c(O)c(/C=c3/cc4c(c(-c5ccc(F)cc5)n3)=Nc3ccccc3-4)c2c1
HOP-92 NSCLC
  GI50: 13.6 µM
  TGI: 41.3 µM
SNB-75 CNS
  GI50: 13 µM
  TGI: 27.4 µM
MDA-MB-231 breast
  GI50: 1.2 µM
  TGI: 3.87 µM
LOX IMVI melanoma
  GI50: 1.64 µM
  TGI: 3.2 µM
HCT-116 colon
  GI50: 1.67 µM
  TGI: 3.04 µM
NCI/ADR-RES ovarian
  GI50: 2 µM
  TGI: 5.63 µM
MDA-MB-435
  GI50: 2.05 µM
  TGI: 6.34 µM
OVCAR-8 ovarian
  GI50: 2 µM
  TGI: 5.01 µM
T-47D breast
  GI50: 2.06 µM
  TGI: 6.94 µM
HL-60(TB) leukemia
  GI50: 9.2 µM
  TGI: > 100 µM
CAKI-1 renal
  GI50: 18.2 µM
  TGI: 36.8 µM
A549 NSCLC
  GI50: 2.31 µM
  TGI: 6.34 µM
MCF7 breast
  GI50: 1.36 µM
  TGI: 3.32 µM
TK-10 renal
  GI50: 2.71 µM
  TGI: 5.32 µM
MALME-3M melanoma
  GI50: 2.4 µM
  TGI: 4.6 µM
DU-145 prostate
  GI50: 2.97 µM
  TGI: 7.96 µM
BT-549 breast
  GI50: 1.8 µM
  TGI: 3.57 µM
NCI-H460 lung
  GI50: 1.82 µM
  TGI: 4.01 µM
PC-3 prostate
  GI50: 8.26 µM
  TGI: > 100 µM
M14 melanoma
  GI50: 1.98 µM
  TGI: 3.85 µM
ACHN renal
  GI50: 10.3 µM
  TGI: 22.5 µM
RXF 393 renal
  GI50: 2.25 µM
  TGI: 7.53 µM
K-562 leukemia
  GI50: 2.45 µM
  TGI: 7.95 µM
HOP-62 NSCLC
  GI50: 1.88 µM
  TGI: 3.69 µM
NCI-H522 lung
  GI50: 1.86 µM
  TGI: 5.19 µM
OVCAR-5 ovarian
  GI50: 13.8 µM
  TGI: 35.6 µM
UACC-257 melanoma
  GI50: 6.77 µM
  TGI: 21 µM
SR leukemia
  GI50: 1.07 µM
  TGI: 6.65 µM
SN12C renal
  GI50: 4.19 µM
  TGI: 18.8 µM
OVCAR-4 ovarian
  GI50: 1.8 µM
  TGI: 4.12 µM
IGROV1 ovarian
  GI50: 19.6 µM
  TGI: 48.8 µM
SNB-19 CNS
  GI50: 3.6 µM
  TGI: > 100 µM
SK-OV-3 ovarian
  GI50: 17.2 µM
  TGI: 33.8 µM
SW-620 colon
  GI50: 1.85 µM
  TGI: 3.89 µM
HCT-15 colon
  GI50: 1.91 µM
  TGI: 4.35 µM
NCI-H23 lung
  GI50: 2.58 µM
  TGI: 10.9 µM
HT29 colon
  GI50: 1.94 µM
  TGI: 3.85 µM
KM12 colon
  GI50: 1.78 µM
  TGI: 4.46 µM
NCI-H226 lung
  GI50: 34.2 µM
  TGI: > 100 µM
A498 renal
  GI50: 13.2 µM
  TGI: 34.3 µM
SF-268 CNS
  GI50: 5.43 µM
  TGI: 43.8 µM
SK-MEL-28 melanoma
  GI50: 1.92 µM
  TGI: 4.58 µM
OVCAR-3 ovarian
  GI50: 1.82 µM
  TGI: 3.24 µM
U251 CNS
  GI50: 1.68 µM
  TGI: 3.26 µM
SK-MEL-2 melanoma
  GI50: 12.6 µM
  TGI: 30.7 µM
MOLT-4 leukemia
  GI50: 1.97 µM
  TGI: 5.21 µM
EKVX NSCLC
  GI50: 23.2 µM
  TGI: > 100 µM
UO-31 renal
  GI50: 15.5 µM
  TGI: 30.3 µM
SF-295 CNS
  GI50: 10.5 µM
  TGI: 31.2 µM
HCC-2998 colon
  GI50: 3.3 µM
  TGI: 12.6 µM
SK-MEL-5 melanoma
  GI50: 3.47 µM
  TGI: 15.8 µM
SF-539 CNS
  GI50: 7.62 µM
  TGI: 20.6 µM
HS 578T breast
  GI50: 2.02 µM
  TGI: 7.48 µM
RPMI-8226 leukemia
  GI50: 3.73 µM
  TGI: 32.9 µM
UACC-62 melanoma
  GI50: 1.54 µM
  TGI: 3.2 µM

## CCOc1cc(C(C)(C)C)ccc1C1=N[C@@](C)(c2ccc(Cl)cc2)[C@@](C)(c2ccc(Cl)cc2)N1C(=O)N1CCN(CCS(C)(=O)=O)CC1
786-0 renal
  GI50: 4 µM
  TGI: 14.5 µM
HOP-92 NSCLC
  GI50: 2.28 µM
  TGI: 8.82 µM
SNB-75 CNS
  GI50: 2.51 µM
  TGI: 14.9 µM
COLO 205 colon
  GI50: 2.03 µM
  TGI: 4.01 µM
MDA-MB-231 breast
  GI50: 2.31 µM
  TGI: 7.61 µM
LOX IMVI melanoma
  GI50: 1.17 µM
  TGI: 3.6 µM
HCT-116 colon
  GI50: 0.804 µM
  TGI: 4.73 µM
NCI/ADR-RES ovarian
  GI50: 4.09 µM
  TGI: 24.4 µM
MDA-MB-435
  GI50: 3.47 µM
  TGI: 11.7 µM
OVCAR-8 ovarian
  GI50: 4.44 µM
  TGI: 26.5 µM
T-47D breast
  GI50: 3.7 µM
  TGI: 57.3 µM
HL-60(TB) leukemia
  GI50: 2.21 µM
  TGI: 5.22 µM
CAKI-1 renal
  GI50: 0.81 µM
  TGI: 6.48 µM
A549 NSCLC
  GI50: 0.975 µM
  TGI: 5.31 µM
MCF7 breast
  GI50: 0.606 µM
  TGI: 3.75 µM
TK-10 renal
  GI50: 3.12 µM
  TGI: 10.3 µM
MALME-3M melanoma
  GI50: 0.535 µM
  TGI: 6.07 µM
DU-145 prostate
  GI50: 4.85 µM
  TGI: 16.1 µM
BT-549 breast
  GI50: 3.24 µM
  TGI: 10 µM
CCRF-CEM leukemia
  GI50: 2.6 µM
  TGI: 7.45 µM
NCI-H460 lung
  GI50: 1.1 µM
  TGI: 5.4 µM
PC-3 prostate
  GI50: 2.01 µM
  TGI: 6.25 µM
M14 melanoma
  GI50: 3.75 µM
  TGI: 14.6 µM
ACHN renal
  GI50: 0.45 µM
  TGI: 2.56 µM
RXF 393 renal
  GI50: 1.76 µM
  TGI: 3.74 µM
K-562 leukemia
  GI50: 3.9 µM
  TGI: 21.7 µM
HOP-62 NSCLC
  GI50: 2.86 µM
  TGI: 8.57 µM
NCI-H522 lung
  GI50: 2.98 µM
  TGI: 10.2 µM
OVCAR-5 ovarian
  GI50: 2.46 µM
  TGI: 7.8 µM
UACC-257 melanoma
  GI50: 1.1 µM
  TGI: 3.72 µM
SR leukemia
  GI50: 0.198 µM
  TGI: 5.26 µM
SN12C renal
  GI50: 3.31 µM
  TGI: 12.8 µM
OVCAR-4 ovarian
  GI50: 2.68 µM
  TGI: 38.3 µM
IGROV1 ovarian
  GI50: 1.49 µM
  TGI: 6.54 µM
SNB-19 CNS
  GI50: 4.4 µM
  TGI: 23.2 µM
SK-OV-3 ovarian
  GI50: 4.32 µM
  TGI: 16.1 µM
SW-620 colon
  GI50: 5.03 µM
  TGI: 20.5 µM
HCT-15 colon
  GI50: 2.27 µM
  TGI: 5.79 µM
NCI-H23 lung
  GI50: 4.69 µM
  TGI: 20.2 µM
HT29 colon
  GI50: 2.29 µM
  TGI: 4.74 µM
KM12 colon
  GI50: 3.33 µM
  TGI: 11.4 µM
NCI-H226 lung
  GI50: 0.5 µM
  TGI: 2.13 µM
A498 renal
  GI50: 0.655 µM
  TGI: 5.27 µM
SF-268 CNS
  GI50: 3.82 µM
  TGI: 17.4 µM
SK-MEL-28 melanoma
  GI50: 3.75 µM
  TGI: 14.3 µM
OVCAR-3 ovarian
  GI50: 3.14 µM
  TGI: 9.33 µM
U251 CNS
  GI50: 2.89 µM
  TGI: 8.52 µM
SK-MEL-2 melanoma
  GI50: 5.29 µM
  TGI: 18.3 µM
MOLT-4 leukemia
  GI50: 0.751 µM
  TGI: 3.96 µM
UO-31 renal
  GI50: 0.361 µM
  TGI: 1.63 µM
SF-295 CNS
  GI50: 3.15 µM
  TGI: 10.5 µM
HCC-2998 colon
  GI50: 2.28 µM
  TGI: 4.98 µM
SK-MEL-5 melanoma
  GI50: 1.38 µM
  TGI: 2.73 µM
SF-539 CNS
  GI50: 2.32 µM
  TGI: 6.16 µM
HS 578T breast
  GI50: 4.1 µM
  TGI: 23.9 µM
RPMI-8226 leukemia
  GI50: 2.49 µM
  TGI: 6.77 µM
UACC-62 melanoma
  GI50: 0.793 µM
  TGI: 3 µM
